Test results published in patent publication US20240123249A1, “ANALGESIA VIA LOW AND ULTRA-LOW FREQUENCY MAGNETIC OR ELECTROMAGNETIC FIELDS AND RELATED SYSTEMS AND METHODS” (EMulate Therapeutics, Inc., priority 2022, published 2024).

Key:
[1] = test system: mechanical hyperalgesia; assay: Carrageenan induced mechanical hyperalgesia, paw pressure test (Randall & Selitto); type: in vivo, rat
[2] = test system: cold allodynia; assay: Oxaliplatin induced neuropathic cold allodynia, paw immersion test; conditions: rat, in vivo
[3] = test system: tactile allodynia; assay: Bennett model of peripheral mononeuropathy, tactile allodynia by electronic Von Frey; type: in vivo, rat
[4] = 30 minutes after morphine 3 mg/kg / 24 hours after signal exposure
[5] = pair-wise Students T-test, α=0.01

Structure (SMILES): COc1ccc2c(c1)c(CC(=O)O)c(C)n2C(=O)c1ccc(Cl)cc1 [Indomethacin]
- applied pressure, carrageenan injected (injured) paw ([1]; 3 h after 2% carrageenan, signals 24 h exposure, Indomethacin 30 mg/kg, MC 1% group 218±18): 306±21 grams
- Carrageenan: statistical significance (P) versus MC 1% group, injured paw ([1]; Dunnett's test after ANOVA, N=10): 0.01
- Carrageenan model: significance versus MC 1% group, uninjured paw ([1]; left paw not injected with carrageenan, Dunnett's test): no significant differences between groups in the uninjured paws, except in the Indomethacin injected group

Structure (SMILES): CNCC[C@H](Oc1cccc2ccccc12)c1cccs1 [duloxetine]
- Oxaliplatin: statistical significance (P) versus MC 1% control group [2]: significantly increased
- leg withdrawal time (latency of hind paw withdrawal) [2]: 13.2 ± 1.6 s

Structure (SMILES): CN1CC[C@]23c4c5ccc(O)c4O[C@H]2[C@@H](O)C=C[C@H]3[C@H]1C5 [morphine]
- average force applied, control paw, Post-Tx [3, 4]: 578±73 grams
- average force applied, injured paw, Post-Tx [3, 4]: 438±51 grams
- average force applied, control paw, Pre-Tx ([3]; before treatment): 300±30 grams
- average force applied, injured paw, Pre-Tx ([3]; before treatment): 180±27 grams
- Bennett: statistical significance (P) Pre-Tx vs. Post-Tx, Control Paw [3, 5]: < 0.00001
- Bennett: statistical significance (P) Pre-Tx vs. Post-Tx, Injured Paw [3, 5]: reached statistical significance
